pKi: −log10 of the molar value. Activity calls are given as the source filed them. The calls are words filed in the database; no cut-off is given here.

The species named for assay [1] is Homo sapiens. The experiment in a line: Selectivity index, reciprocal of ratio of Ki for human alpha7 nAChR transfected in human SH-SY5Y cells to Ki for human alpha3beta4 nAChR transfected in HEK293 cells. Type of assay: cell-based.
Assay [2] is filed under the species Homo sapiens. The experiment in a line: Selectivity index, reciprocal of ratio of Ki for human alpha3beta4 nAChR transfected in HEK293 cells to Ki for human alpha4beta2 nAChR transfected in HEK293 cells. The format is cell-based.
The target of assay [3] is T1, Neuronal acetylcholine receptor subunit alpha-7 (Homo sapiens, UniProt P36544). The experiment in a line: Displacement of [3H]MLA from human alpha7 nAChR transfected in human SH-SY5Y cell membranes after 120 mins by liquid scintillation counting.
For assay [4], the species on record is Homo sapiens. The experiment in a line: Selectivity index, reciprocal of ratio of Ki for alpha7 nAChR transfected in human SH-SY5Y cells to KI for human alpha4beta2 nAChR transfected in HEK293 cells. Type of assay: cell-based.
Assay [5] addresses T2, Neuronal acetylcholine receptor; alpha3/beta4 (Homo sapiens, UniProt P30926+P32297). The experiment in a line: Displacement of [3H]epibatidine from human alpha3beta4 nAChR transfected in HEK293 cell membranes after 120 mins by liquid scintillation counting.
The target in assay [6] is T3, Neuronal acetylcholine receptor; alpha4/beta2 (Homo sapiens, UniProt P17787+P43681). In words: Displacement of [3H]epibatidine from human alpha4beta2 nAChR transfected in HEK293 cell membranes after 120 mins by liquid scintillation counting.
Assay [7] addresses T1, Neuronal acetylcholine receptor subunit alpha-7. In words: Binding affinity to alpha7 nAChR (unknown origin).
The target of assay [8] is T3, Neuronal acetylcholine receptor; alpha4/beta2. In words: Binding affinity to alpha4beta2 nAChR (unknown origin). Type of assay: protein-complex assay.
Assay [9] addresses Neuronal acetylcholine receptor subunit alpha-7 (Rattus norvegicus, UniProt Q05941). In words: Displacement of [3H]MLA from alpha7 nAChR in rat brain membranes after 2 hrs. Type of assay: cell membranes.
The target of assay [10] is T2, Neuronal acetylcholine receptor; alpha3/beta4. The experiment in a line: Agonist activity at human alpha3beta4 nAChR expressed in HEK293 cells assessed as increase in intracellular calcium levels at 10 uM. The format is cell-based.
For assay [11], the target named is T1, Neuronal acetylcholine receptor subunit alpha-7. The experiment in a line: Agonist activity at human alpha7 nAChR expressed in human SH-SY5Y cells assessed as increase in intracellular calcium levels at 10 uM. The format is cell-based.
Assay [12] has the same target. In words: Displacement of [3H]MLA from human recombinant alpha7 nAChR expressed in HEKtsA201 cells after 1 hr by CNiFERs binding assay. The format is cell-based.
Assay [13] concerns the target T3, Neuronal acetylcholine receptor; alpha4/beta2. The experiment in a line: Displacement of [3H]-(+/-)-epibatidine from human recombinant alpha4beta2 nAChR expressed in HEKtsA201 cells after 1 hr by CNiFERs binding assay. Type of assay: cell-based.
Assay [14] concerns the target T2, Neuronal acetylcholine receptor; alpha3/beta4. The experiment in a line: Antagonist activity at human alpha3beta4 nAChR expressed in HEK293 cells assessed as rediution in epibatidine-induced intracellular calcium levels at 10 uM. The format is cell-based.
Assay [15] deals with Serotonin 3 (5-HT3) receptor (Homo sapiens) (UniProt P46098+A5X5Y0+O95264+Q70Z44+Q8WXA8). The experiment in a line: Displacement of [3H]BRL-43694 from human recombinant 5-HT3 receptor expressed in CHO cells at 100 nM. Type of assay: cell-based.
Assay [16] addresses Acetylcholine receptor subunit alpha (Homo sapiens) (UniProt P02708). The experiment in a line: Displacement of [125I]alpha-bungarotoxin from human N-muscle type nAChR alpha1 expressed in human RD cells at 1 uM. The format is cell-based.
The target of assay [17] is Neuronal acetylcholine receptor; alpha4/beta2 (Rattus norvegicus, UniProt P09483+P12390). In words: Displacement of [3H]cytisine from alpha4beta2 nAChR in Sprague-Dawley rat brain membranes after 75 mins by scintillation counting. The format is cell membranes.
Assay [18] has as its target T1, Neuronal acetylcholine receptor subunit alpha-7. The experiment in a line: Displacement of [3H]A-585539 from alpha7 nAChR in human cerebral cortex membranes after 75 mins by scintillation counting. Type of assay: cell membranes.
Assay [19] concerns the target T2, Neuronal acetylcholine receptor; alpha3/beta4. In words: Displacement of [3H] epibatidine from alpha3beta4 nAChR (unknown origin) expressed in HEK293 cells. Type of assay: cell-based.
Assay [20] addresses T3, Neuronal acetylcholine receptor; alpha4/beta2. The experiment in a line: Displacement of [3H] epibatidine from alpha4beta2 nAChR (unknown origin) expressed in HEK293 cells. The format is cell-based.
In assay [21] the target is T1, Neuronal acetylcholine receptor subunit alpha-7. The experiment in a line: Displacement of [3H] epibatidine from alpha7 nAChR (unknown origin) expressed in HEK293 cells. The format is cell-based.

T2 sequence (P30926 whole entry): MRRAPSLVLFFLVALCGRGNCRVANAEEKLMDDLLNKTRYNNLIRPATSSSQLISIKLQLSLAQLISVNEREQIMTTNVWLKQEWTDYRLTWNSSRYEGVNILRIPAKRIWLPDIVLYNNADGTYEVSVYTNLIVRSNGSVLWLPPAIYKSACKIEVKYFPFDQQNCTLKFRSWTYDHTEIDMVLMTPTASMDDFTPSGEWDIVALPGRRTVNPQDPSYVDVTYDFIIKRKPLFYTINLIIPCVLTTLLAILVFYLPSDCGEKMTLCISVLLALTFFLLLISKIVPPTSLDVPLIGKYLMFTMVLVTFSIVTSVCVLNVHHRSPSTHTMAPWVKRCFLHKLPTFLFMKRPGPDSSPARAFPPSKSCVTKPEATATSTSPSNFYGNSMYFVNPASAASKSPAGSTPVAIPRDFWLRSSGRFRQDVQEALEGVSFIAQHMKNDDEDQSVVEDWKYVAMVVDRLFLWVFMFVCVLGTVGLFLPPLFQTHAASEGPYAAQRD
T2 sequence (P32297 whole entry): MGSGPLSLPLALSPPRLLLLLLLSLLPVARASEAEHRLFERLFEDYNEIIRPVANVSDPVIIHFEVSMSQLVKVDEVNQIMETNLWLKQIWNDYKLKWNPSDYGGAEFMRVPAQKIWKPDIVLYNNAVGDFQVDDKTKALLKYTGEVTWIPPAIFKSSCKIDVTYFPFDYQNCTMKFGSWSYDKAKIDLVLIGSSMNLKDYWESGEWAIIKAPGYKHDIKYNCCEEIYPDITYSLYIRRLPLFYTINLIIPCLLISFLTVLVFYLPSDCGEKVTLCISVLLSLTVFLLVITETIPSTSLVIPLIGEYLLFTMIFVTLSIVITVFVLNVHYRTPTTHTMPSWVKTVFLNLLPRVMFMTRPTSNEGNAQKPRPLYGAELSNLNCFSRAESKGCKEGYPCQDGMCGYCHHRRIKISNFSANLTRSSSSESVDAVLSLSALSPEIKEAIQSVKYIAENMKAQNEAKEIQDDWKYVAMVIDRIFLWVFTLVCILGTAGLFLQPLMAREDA
T1 sequence (P36544 whole entry): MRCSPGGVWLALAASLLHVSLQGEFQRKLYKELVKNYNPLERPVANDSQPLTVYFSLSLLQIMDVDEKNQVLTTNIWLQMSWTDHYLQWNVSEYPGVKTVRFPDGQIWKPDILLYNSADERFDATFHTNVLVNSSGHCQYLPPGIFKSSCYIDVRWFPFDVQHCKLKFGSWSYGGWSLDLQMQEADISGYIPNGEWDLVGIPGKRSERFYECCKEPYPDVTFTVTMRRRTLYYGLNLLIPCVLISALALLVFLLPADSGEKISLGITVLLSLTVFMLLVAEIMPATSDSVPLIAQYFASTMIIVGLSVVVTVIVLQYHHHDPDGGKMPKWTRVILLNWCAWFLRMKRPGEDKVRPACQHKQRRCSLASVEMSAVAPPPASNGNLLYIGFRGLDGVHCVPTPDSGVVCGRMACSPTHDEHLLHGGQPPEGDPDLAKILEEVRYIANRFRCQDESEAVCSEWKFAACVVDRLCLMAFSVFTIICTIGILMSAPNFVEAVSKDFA
T3 sequence (P17787 whole entry): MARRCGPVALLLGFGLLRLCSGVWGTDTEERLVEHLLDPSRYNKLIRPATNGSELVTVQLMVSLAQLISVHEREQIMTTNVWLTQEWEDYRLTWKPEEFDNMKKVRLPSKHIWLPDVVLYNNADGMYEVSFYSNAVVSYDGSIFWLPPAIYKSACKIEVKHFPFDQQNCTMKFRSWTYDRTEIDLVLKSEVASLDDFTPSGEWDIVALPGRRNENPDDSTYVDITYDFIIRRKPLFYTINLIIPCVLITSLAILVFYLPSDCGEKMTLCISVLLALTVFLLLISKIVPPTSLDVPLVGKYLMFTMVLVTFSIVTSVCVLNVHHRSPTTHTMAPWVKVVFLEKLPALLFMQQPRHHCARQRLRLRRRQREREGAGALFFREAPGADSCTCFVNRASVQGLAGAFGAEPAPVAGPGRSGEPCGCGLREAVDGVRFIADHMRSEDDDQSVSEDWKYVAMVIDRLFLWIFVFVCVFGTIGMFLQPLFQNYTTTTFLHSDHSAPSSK
T3 sequence (P43681 whole entry): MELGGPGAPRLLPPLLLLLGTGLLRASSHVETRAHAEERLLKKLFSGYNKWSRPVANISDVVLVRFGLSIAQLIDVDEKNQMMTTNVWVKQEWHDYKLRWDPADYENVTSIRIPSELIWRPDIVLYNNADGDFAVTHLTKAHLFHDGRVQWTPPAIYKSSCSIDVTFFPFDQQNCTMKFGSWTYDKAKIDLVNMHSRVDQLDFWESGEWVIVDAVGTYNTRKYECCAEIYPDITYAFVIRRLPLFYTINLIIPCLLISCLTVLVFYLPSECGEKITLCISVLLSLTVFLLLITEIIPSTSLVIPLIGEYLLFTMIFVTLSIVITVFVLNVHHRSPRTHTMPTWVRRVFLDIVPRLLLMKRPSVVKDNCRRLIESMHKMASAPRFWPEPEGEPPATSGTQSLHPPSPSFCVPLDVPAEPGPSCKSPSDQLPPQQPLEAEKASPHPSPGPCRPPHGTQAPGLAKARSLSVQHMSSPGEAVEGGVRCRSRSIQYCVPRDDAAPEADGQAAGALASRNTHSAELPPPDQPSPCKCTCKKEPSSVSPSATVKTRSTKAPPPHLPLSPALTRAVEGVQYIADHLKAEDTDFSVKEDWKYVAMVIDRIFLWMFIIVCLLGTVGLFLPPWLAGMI
Acetylcholine receptor subunit alpha (Homo sapiens), sequence (P02708 whole entry): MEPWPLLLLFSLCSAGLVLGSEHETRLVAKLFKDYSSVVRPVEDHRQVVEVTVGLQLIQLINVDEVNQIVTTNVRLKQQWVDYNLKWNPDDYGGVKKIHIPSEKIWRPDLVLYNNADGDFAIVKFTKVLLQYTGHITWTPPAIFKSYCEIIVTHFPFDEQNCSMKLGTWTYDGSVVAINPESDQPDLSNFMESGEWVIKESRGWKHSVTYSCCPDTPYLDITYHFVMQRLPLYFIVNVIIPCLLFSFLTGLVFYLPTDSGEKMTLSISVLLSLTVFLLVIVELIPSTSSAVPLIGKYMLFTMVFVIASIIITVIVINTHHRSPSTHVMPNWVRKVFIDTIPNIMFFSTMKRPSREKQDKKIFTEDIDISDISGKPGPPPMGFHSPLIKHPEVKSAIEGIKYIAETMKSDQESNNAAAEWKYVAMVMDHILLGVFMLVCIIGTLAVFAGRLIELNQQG
Neuronal acetylcholine receptor subunit alpha-7 (Rattus norvegicus, UniProt Q05941), sequence (Q05941 whole entry): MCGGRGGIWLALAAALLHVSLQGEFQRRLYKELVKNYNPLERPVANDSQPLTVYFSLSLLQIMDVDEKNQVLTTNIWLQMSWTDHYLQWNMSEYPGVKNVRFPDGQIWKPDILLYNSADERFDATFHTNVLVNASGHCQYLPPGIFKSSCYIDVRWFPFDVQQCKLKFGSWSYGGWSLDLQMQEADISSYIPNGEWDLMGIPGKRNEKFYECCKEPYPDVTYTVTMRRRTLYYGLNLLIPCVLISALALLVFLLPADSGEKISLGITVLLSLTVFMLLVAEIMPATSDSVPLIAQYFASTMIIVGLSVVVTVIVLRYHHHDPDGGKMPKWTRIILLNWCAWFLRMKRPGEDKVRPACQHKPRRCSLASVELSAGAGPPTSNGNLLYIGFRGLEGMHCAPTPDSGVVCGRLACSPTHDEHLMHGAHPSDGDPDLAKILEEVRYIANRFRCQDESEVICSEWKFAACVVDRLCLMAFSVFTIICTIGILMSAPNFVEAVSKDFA
Neuronal acetylcholine receptor; alpha4/beta2 (Rattus norvegicus, UniProt P09483+P12390), sequence (P09483 whole entry): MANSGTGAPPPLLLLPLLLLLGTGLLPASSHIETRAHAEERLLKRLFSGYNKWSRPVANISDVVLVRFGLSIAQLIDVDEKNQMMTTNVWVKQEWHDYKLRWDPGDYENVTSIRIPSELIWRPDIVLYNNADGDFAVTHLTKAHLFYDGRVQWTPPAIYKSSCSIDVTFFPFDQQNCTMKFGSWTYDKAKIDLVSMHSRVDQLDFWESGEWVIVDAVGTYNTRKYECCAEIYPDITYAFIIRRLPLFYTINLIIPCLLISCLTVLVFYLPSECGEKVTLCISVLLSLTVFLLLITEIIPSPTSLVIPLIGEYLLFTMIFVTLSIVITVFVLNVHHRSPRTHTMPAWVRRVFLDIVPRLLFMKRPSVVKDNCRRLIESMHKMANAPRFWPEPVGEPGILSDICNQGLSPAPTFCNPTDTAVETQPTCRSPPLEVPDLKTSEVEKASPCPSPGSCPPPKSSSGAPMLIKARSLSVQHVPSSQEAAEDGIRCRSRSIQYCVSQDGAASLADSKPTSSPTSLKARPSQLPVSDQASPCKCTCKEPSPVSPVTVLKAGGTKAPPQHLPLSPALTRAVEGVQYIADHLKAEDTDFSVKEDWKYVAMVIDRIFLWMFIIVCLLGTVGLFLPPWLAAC
Neuronal acetylcholine receptor; alpha4/beta2 (Rattus norvegicus, UniProt P09483+P12390), sequence (P12390 whole entry): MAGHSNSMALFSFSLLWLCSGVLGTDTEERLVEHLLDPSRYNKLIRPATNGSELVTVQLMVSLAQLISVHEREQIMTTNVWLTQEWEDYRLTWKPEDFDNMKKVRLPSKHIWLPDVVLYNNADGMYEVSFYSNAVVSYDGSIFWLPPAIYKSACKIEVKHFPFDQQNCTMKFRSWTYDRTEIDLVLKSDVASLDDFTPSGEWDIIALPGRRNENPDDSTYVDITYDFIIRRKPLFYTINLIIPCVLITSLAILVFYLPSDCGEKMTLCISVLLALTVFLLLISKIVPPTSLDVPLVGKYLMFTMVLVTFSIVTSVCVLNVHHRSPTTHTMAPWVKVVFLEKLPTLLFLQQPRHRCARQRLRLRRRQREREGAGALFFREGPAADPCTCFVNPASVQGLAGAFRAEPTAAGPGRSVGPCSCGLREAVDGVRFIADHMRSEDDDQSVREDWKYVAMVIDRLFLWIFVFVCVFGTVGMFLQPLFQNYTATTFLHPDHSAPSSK

On to `Oc1ccc(-c2cn([C@H]3CN4CCC3CC4)nn2)cc1`, for which the figures for the Ratio in assay [1], in [2] and in assay [4] were 12.7, 54 and 678, respectively. Moreover, the pKi was 7.96 in [3], 6.86 in [5] and 5.13 in [6].
For the compound `Fc1ccc(-c2cn(C3CN4CCC3CC4)nn2)cc1` (racemic), the Ratio in assay [2] worked out at 53; in assay [4], 6.2. The values for the pKi in [3], in assay [5] and in assay [6] were 7.14, 8.07 and 6.35, respectively.
The like results for `FCCOc1cccc(-c2cn(C3CN4CCC3CC4)nn2)c1` (racemic) were, in that order, 94, 20, 7.01, 7.68 and 5.71.
Consider `Fc1ccc(COc2cccc(-c3cn([C@H]4CN5CCC4CC5)nn3)c2)cc1`, for which the figures for the Ratio in assay [1], in assay [2] and in assay [4] were 33, 5.9 and 193, respectively. In addition, the pKi is 7.48 in [3], 5.96 in assay [5] and 5.19 in assay [6].
Take `c1ccc(COc2cccc(-c3cn([C@H]4CN5CCC4CC5)nn3)c2)cc1`: the Ratio in [1] stood at 28; in [2], 8; in assay [4], 225. For the same compound, the pKi in assay [3] is 7.65; in assay [5] it was 6.20; in [6], 5.30.
Regarding `CN1C2CCCC1CC(Nc1ccccc1Br)C2` (configuration not stated), the values for the pKi in assay [7] and in assay [8] were 6.66 and 6.32, respectively.
As to `O=C(N[C@H]1CN2CCC1CC2)c1c[nH]c2ccccc12`, in assay [9], the pKi is 8.22.
With `Fc1ccc(COc2cccc(-c3cn(C4CN5CCC4CC5)nn3)c2)cc1` (racemic), the figures for the Ratio in assay [2] and in [4] were 73 and 8, respectively. In addition, the results for the pKi in assay [3], in assay [5] and in assay [6] were 6.90, 7.86 and 5.99, respectively.
The matching figures for `Fc1cccc(-c2cn(C3CN4CCC3CC4)nn2)c1` (racemic): 143, 5.6, 6.88, 8.28 and 6.13.
For `FCCCOc1cccc(-c2cn([C@@H]3CN4CCC3CC4)nn2)c1`, the Ratio was determined as 102 in assay [2] and 20 in [4]. Besides, the figures for the pKi in [3], in [5] and in assay [6] were 7.01, 7.71 and 5.70, respectively.
Take `FCCOc1cccc(-c2cn([C@@H]3CN4CCC3CC4)nn2)c1`: the Ratio worked out at 107 in assay [2] and 17 in [4]. The pKi was 7.13 in assay [3], 7.93 in [5] and 5.90 in assay [6].
Take `Fc1cccc(-c2cn([C@H]3CN4CCC3CC4)nn2)c1`: the Ratio in assay [1] came out at 3.1; in [2], 14; in [4] it was 44. Further, the result in assay [10] and in assay [11] was Active. For the same compound, the pKi is 6.93 in [3], 6.44 in [5] and 5.28 in assay [6].
Consider `FCCCOc1cccc(-c2cn(C3CN4CCC3CC4)nn2)c1` (racemic), for which the Ratio turned out to be 88 in assay [2] and 52 in assay [4]. The pKi in assay [3] is 7.13; in [5], 7.35; in assay [6], 5.41.
For the compound `Oc1ccc(-c2cn(C3CN4CCC3CC4)nn2)cc1` (racemic), the Ratio amounted to 182 in assay [2] and 65 in [4]. Moreover, the pKi in assay [12] was 7.09; in [13], below 5.00; in assay [3] it was 8.02; in [5], 8.46; in [6], 6.20.
On to `Oc1ccc(-c2cn([C@@H]3CN4CCC3CC4)nn2)cc1`, for which the figures for the Ratio in assay [2] and in assay [4] were 186 and 16, respectively. Also, the pKi in assay [3] was 7.53; in assay [5] it was 8.61; in assay [6], 6.34.
With `Fc1ccc(-c2cn([C@H]3CN4CCC3CC4)nn2)cc1`, the Ratio in assay [1] was found to be 14; in assay [2], 10; in [4] it was 143. In assay [14], the inhibition result is “Active”. Further, the result in assay [11] was Active. Further, the pKi in assay [3] was 7.14; in assay [5] it was 6.00; in assay [6], 4.98.
As for `FCCCOc1cccc(-c2cn([C@H]3CN4CCC3CC4)nn2)c1`, the Ratio amounted to 26 in [1], 5.5 in assay [2] and 145 in assay [4]. In addition, the pKi was 7.21 in assay [3], 5.79 in [5] and 5.05 in assay [6].
With `Fc1ccc(COc2cccc(-c3cn([C@@H]4CN5CCC4CC5)nn3)c2)cc1`, in assay [15], the inhibition result is “Active”. For the same compound, the results for the Ratio in assay [2] and in assay [4] were 75 and 3.6, respectively. For the same compound, the pKi was 6.83 in assay [3], 8.14 in assay [5] and 6.27 in [6]. The inhibition in assay [16] lay within 2 to 12%.
For the compound `c1cc2cc(-c3ccc(O[C@H]4CN5CCC4CC5)nn3)ccc2[nH]1` [ABT-107], the pKi in assay [17] was 5.40; in assay [18] it was 9.66.
As for `FC(F)(F)c1ccc2c(c1)[C@@H]1CNC[C@H]2C1`, the pKi in [19] is 7.68; in [20], 7.68; in [21], below 6.52.
With `c1ccc(COc2cccc(-c3cn(C4CN5CCC4CC5)nn3)c2)cc1` (racemic), the values for the Ratio in assay [2] and in [4] were 88 and 7.3, respectively. For the same compound, the pKi in assay [3] is 7.04; in [5], 8.12; in [6] it was 6.18.
For `Fc1ccc(-c2cn([C@@H]3CN4CCC3CC4)nn2)cc1`, the inhibition result in assay [15] is “inactive”. Also, the outcome in assay [10] and in assay [11] was Active. The Ratio was determined as 167 in assay [2] and 3 in [4]. In addition, the results for the pKi in assay [3], in assay [5] and in assay [6] were 6.76, 8.51 and 6.29, respectively. In assay [16], this compound showed an inhibition of 2 to 12%.
For `c1ccc(COc2cccc(-c3cn([C@@H]4CN5CCC4CC5)nn3)c2)cc1`, the inhibition entry in assay [15] was “inactive”. Moreover, the values for the Ratio in assay [2] and in [4] were 62 and 1.5, respectively. In addition, the pKi in [3] was 6.55; in assay [5], 8.18; in [6] it was 6.38. The compound further came in with an inhibition in assay [16] of 2 to 12%.
Turning to `FCCOc1cccc(-c2cn([C@H]3CN4CCC3CC4)nn2)c1`, the Ratio is 14 in assay [1], 13 in assay [2] and 182 in [4]. Also, the pKi in [3] was 7.41; in assay [5] it was 6.25; in assay [6], 5.15.
Regarding `Fc1cccc(-c2cn([C@@H]3CN4CCC3CC4)nn2)c1`, the inhibition result in assay [15] is “inactive”. In addition, in [2], the Ratio worked out at 231. Also, in assay [14], the inhibition entry was “Active”. Further, the result in [11] was Active. In addition, the pKi in assay [3] is 6.18; in assay [5] it was 8.65; in assay [6], 6.28. The compound further yielded an inhibition in assay [16] of 2 to 12%.

The record behind these values is ChEMBL document CHEMBL4428135, “Varying Chirality Across Nicotinic Acetylcholine Receptor Subtypes: Selective Binding of Quinuclidine Triazole Compounds” (ACS Med Chem Lett, 2016).
